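1) Cells in 96-well plates. 2) Compound, 48 h, 5 concentrations. 3) Linear interpolation between surrounding doses. 4) Unreached endpoint = highest concentration. At the TGI there is no net growth.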
Assays:
Assay in all cases: DTP human tumour cell line panel, 48 h
[1] = system: HCT-116 colon
[2] = system: T-47D breast
[3] = system: SN12C renal
[4] = system: HL-60(TB) leukemia
[5] = system: LOX IMVI melanoma
[6] = system: 786-0 renal
[7] = system: SR leukemia
[8] = system: OVCAR-5 ovarian
[9] = system: IGROV1 ovarian
[10] = system: HOP-62 NSCLC
[11] = system: SNB-19 CNS
[12] = system: HOP-92 NSCLC
[13] = system: A549 NSCLC
[14] = system: U251 CNS
[15] = system: M14 melanoma
[16] = system: SK-MEL-5 melanoma
[17] = system: NCI-H226 lung
[18] = system: MDA-MB-435
[19] = system: MALME-3M melanoma
[20] = system: HS 578T breast
[21] = system: NCI-H522 lung
[22] = system: HT29 colon
[23] = system: EKVX NSCLC
[24] = system: CCRF-CEM leukemia
[25] = system: OVCAR-3 ovarian
[26] = system: MDA-MB-231 breast
[27] = system: BT-549 breast
[28] = system: SK-OV-3 ovarian
[29] = system: K-562 leukemia
[30] = system: NCI-H460 lung
[31] = system: CAKI-1 renal
[32] = system: ACHN renal
[33] = system: SF-268 CNS
[34] = system: SF-539 CNS
[35] = system: SW-620 colon
[36] = system: NCI-H23 lung
[37] = system: UACC-257 melanoma
[38] = system: MCF7 breast
[39] = system: UO-31 renal
[40] = system: SF-295 CNS
[41] = system: RPMI-8226 leukemia
[42] = system: HCT-15 colon
[43] = system: PC-3 prostate
[44] = system: UACC-62 melanoma
[45] = system: SK-MEL-2 melanoma
[46] = system: COLO 205 colon
[47] = system: DU-145 prostate
[48] = system: OVCAR-8 ovarian
[49] = system: KM12 colon
[50] = system: NCI/ADR-RES ovarian
[51] = system: TK-10 renal
[52] = system: A498 renal
[53] = system: OVCAR-4 ovarian
[54] = system: MOLT-4 leukemia
[55] = system: HCC-2998 colon
[56] = system: SK-MEL-28 melanoma
[57] = system: SNB-75 CNS

Measured: TGI

CO[C@]12C[C@H](CNC(=O)c3ccc[nH]3)O[C@H]1NC(=O)N2
not listed: [53] | [54] | [55] | [56] | [57]
> 100 µM: all other assays above

CCC(C(=O)C(=O)OC)P1(=O)OC(C)(C)CN1C(C)(C)C (stereo not drawn)
60.4 µM: [44]
53.1 µM: [52]
not listed: [3] | [4] | [12] | [20] | [21] | [24]
> 100 µM: all other assays above

Reference: PubChem BioAssay (NCI)
